From PubChem BioAssay (NCI)
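Cells were grown in 96-well plates and exposed to each compound for 48 hours at five concentrations; endpoints were interpolated linearly between bracketing concentrations, or set to the highest concentration if not reached. TGI denotes the concentration required for complete inhibition of growth.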

Legend:
Experiment in all cases: inhibition of tumour cell growth, NCI panel, 48 h
PC-3 prostate = tested on: PC-3 prostate
UACC-257 melanoma = tested on: UACC-257 melanoma
U251 CNS = tested on: U251 CNS
NCI-H460 lung = tested on: NCI-H460 lung
SNB-19 CNS = tested on: SNB-19 CNS
NCI-H226 lung = tested on: NCI-H226 lung
SF-539 CNS = tested on: SF-539 CNS
HT29 colon = tested on: HT29 colon
HOP-62 NSCLC = tested on: HOP-62 NSCLC
SNB-75 CNS = tested on: SNB-75 CNS
TK-10 renal = tested on: TK-10 renal
MDA-MB-231 breast = tested on: MDA-MB-231 breast
OVCAR-3 ovarian = tested on: OVCAR-3 ovarian
KM12 colon = tested on: KM12 colon
COLO 205 colon = tested on: COLO 205 colon
DU-145 prostate = tested on: DU-145 prostate
EKVX NSCLC = tested on: EKVX NSCLC
K-562 leukemia = tested on: K-562 leukemia
RXF 393 renal = tested on: RXF 393 renal
IGROV1 ovarian = tested on: IGROV1 ovarian
SF-268 CNS = tested on: SF-268 CNS
CAKI-1 renal = tested on: CAKI-1 renal
UACC-62 melanoma = tested on: UACC-62 melanoma
NCI-H23 lung = tested on: NCI-H23 lung
NCI-H522 lung = tested on: NCI-H522 lung
SK-MEL-28 melanoma = tested on: SK-MEL-28 melanoma
SR leukemia = tested on: SR leukemia
HS 578T breast = tested on: HS 578T breast
SF-295 CNS = tested on: SF-295 CNS
SK-MEL-2 melanoma = tested on: SK-MEL-2 melanoma
HCT-116 colon = tested on: HCT-116 colon
ACHN renal = tested on: ACHN renal
OVCAR-8 ovarian = tested on: OVCAR-8 ovarian
786-0 renal = tested on: 786-0 renal
MDA-MB-435 = tested on: MDA-MB-435
UO-31 renal = tested on: UO-31 renal
T-47D breast = tested on: T-47D breast
HCC-2998 colon = tested on: HCC-2998 colon
BT-549 breast = tested on: BT-549 breast
SW-620 colon = tested on: SW-620 colon
OVCAR-5 ovarian = tested on: OVCAR-5 ovarian
MOLT-4 leukemia = tested on: MOLT-4 leukemia
OVCAR-4 ovarian = tested on: OVCAR-4 ovarian
LOX IMVI melanoma = tested on: LOX IMVI melanoma
SK-MEL-5 melanoma = tested on: SK-MEL-5 melanoma
A498 renal = tested on: A498 renal
CCRF-CEM leukemia = tested on: CCRF-CEM leukemia
NCI/ADR-RES ovarian = tested on: NCI/ADR-RES ovarian
SK-OV-3 ovarian = tested on: SK-OV-3 ovarian
SN12C renal = tested on: SN12C renal
MDA-N = tested on: MDA-N
MALME-3M melanoma = tested on: MALME-3M melanoma
A549 NSCLC = tested on: A549 NSCLC
MCF7 breast = tested on: MCF7 breast
HOP-92 NSCLC = tested on: HOP-92 NSCLC
M14 melanoma = tested on: M14 melanoma
HCT-15 colon = tested on: HCT-15 colon
HL-60(TB) leukemia = tested on: HL-60(TB) leukemia
RPMI-8226 leukemia = tested on: RPMI-8226 leukemia

## NS(=O)(=O)c1cc(Cl)c(NC(=S)NC(=O)Nc2ccc(Cl)c(Cl)c2)c(Cl)c1
PC-3 prostate
  TGI: > 100 µM
UACC-257 melanoma
  TGI: > 100 µM
U251 CNS
  TGI: > 100 µM
NCI-H460 lung
  TGI: > 100 µM
SNB-19 CNS
  TGI: > 100 µM
NCI-H226 lung
  TGI: > 100 µM
SF-539 CNS
  TGI: 90.7 µM
HT29 colon
  TGI: > 100 µM
HOP-62 NSCLC
  TGI: > 100 µM
SNB-75 CNS
  TGI: > 100 µM
TK-10 renal
  TGI: > 100 µM
MDA-MB-231 breast
  TGI: > 100 µM
OVCAR-3 ovarian
  TGI: > 100 µM
KM12 colon
  TGI: > 100 µM
COLO 205 colon
  TGI: 33.6 µM
DU-145 prostate
  TGI: > 100 µM
EKVX NSCLC
  TGI: > 100 µM
K-562 leukemia
  TGI: > 100 µM
RXF 393 renal
  TGI: > 100 µM
IGROV1 ovarian
  TGI: > 100 µM
SF-268 CNS
  TGI: > 100 µM
CAKI-1 renal
  TGI: > 100 µM
UACC-62 melanoma
  TGI: 90.2 µM
NCI-H23 lung
  TGI: > 100 µM
NCI-H522 lung
  TGI: 86.4 µM
SK-MEL-28 melanoma
  TGI: > 100 µM
SR leukemia
  TGI: > 100 µM
HS 578T breast
  TGI: > 100 µM
SF-295 CNS
  TGI: > 100 µM
SK-MEL-2 melanoma
  TGI: 90.6 µM
HCT-116 colon
  TGI: > 100 µM
ACHN renal
  TGI: > 100 µM
OVCAR-8 ovarian
  TGI: > 100 µM
786-0 renal
  TGI: > 100 µM
MDA-MB-435
  TGI: > 100 µM
UO-31 renal
  TGI: > 100 µM
T-47D breast
  TGI: > 100 µM
HCC-2998 colon
  TGI: > 100 µM
BT-549 breast
  TGI: > 100 µM
SW-620 colon
  TGI: > 100 µM
OVCAR-5 ovarian
  TGI: > 100 µM
MOLT-4 leukemia
  TGI: > 100 µM
OVCAR-4 ovarian
  TGI: > 100 µM
LOX IMVI melanoma
  TGI: > 100 µM
SK-MEL-5 melanoma
  TGI: 40.3 µM
A498 renal
  TGI: 84.4 µM
CCRF-CEM leukemia
  TGI: > 100 µM
NCI/ADR-RES ovarian
  TGI: > 100 µM
SK-OV-3 ovarian
  TGI: > 100 µM
SN12C renal
  TGI: > 100 µM
MDA-N
  TGI: > 100 µM
MALME-3M melanoma
  TGI: > 100 µM
A549 NSCLC
  TGI: > 100 µM
MCF7 breast
  TGI: 53.8 µM
HOP-92 NSCLC
  TGI: > 100 µM
M14 melanoma
  TGI: > 100 µM
HCT-15 colon
  TGI: > 100 µM
HL-60(TB) leukemia
  TGI: 68.4 µM

## O=C(/C=C/c1ccc2c(c1)OCO2)CC(=O)C(=O)c1c[nH]c2ccccc12
PC-3 prostate
  TGI: > 100 µM
UACC-257 melanoma
  TGI: > 100 µM
U251 CNS
  TGI: > 100 µM
NCI-H460 lung
  TGI: > 100 µM
SNB-19 CNS
  TGI: > 100 µM
SF-539 CNS
  TGI: > 100 µM
HT29 colon
  TGI: > 100 µM
HOP-62 NSCLC
  TGI: > 100 µM
SNB-75 CNS
  TGI: 96.6 µM
TK-10 renal
  TGI: > 100 µM
MDA-MB-231 breast
  TGI: > 100 µM
OVCAR-3 ovarian
  TGI: > 100 µM
KM12 colon
  TGI: > 100 µM
COLO 205 colon
  TGI: > 100 µM
DU-145 prostate
  TGI: > 100 µM
EKVX NSCLC
  TGI: > 100 µM
K-562 leukemia
  TGI: 84.6 µM
RXF 393 renal
  TGI: 96.6 µM
IGROV1 ovarian
  TGI: > 100 µM
SF-268 CNS
  TGI: > 100 µM
CAKI-1 renal
  TGI: > 100 µM
UACC-62 melanoma
  TGI: > 100 µM
NCI-H23 lung
  TGI: > 100 µM
NCI-H522 lung
  TGI: > 100 µM
SK-MEL-28 melanoma
  TGI: > 100 µM
SR leukemia
  TGI: > 100 µM
HS 578T breast
  TGI: 68.1 µM
SF-295 CNS
  TGI: > 100 µM
SK-MEL-2 melanoma
  TGI: > 100 µM
HCT-116 colon
  TGI: > 100 µM
ACHN renal
  TGI: > 100 µM
OVCAR-8 ovarian
  TGI: > 100 µM
786-0 renal
  TGI: > 100 µM
MDA-MB-435
  TGI: 68.5 µM
UO-31 renal
  TGI: 64.1 µM
T-47D breast
  TGI: 62.1 µM
HCC-2998 colon
  TGI: 48.4 µM
BT-549 breast
  TGI: > 100 µM
SW-620 colon
  TGI: > 100 µM
OVCAR-5 ovarian
  TGI: > 100 µM
MOLT-4 leukemia
  TGI: > 100 µM
LOX IMVI melanoma
  TGI: > 100 µM
SK-MEL-5 melanoma
  TGI: > 100 µM
A498 renal
  TGI: > 100 µM
CCRF-CEM leukemia
  TGI: 69.4 µM
NCI/ADR-RES ovarian
  TGI: > 100 µM
RPMI-8226 leukemia
  TGI: > 100 µM
SK-OV-3 ovarian
  TGI: > 100 µM
SN12C renal
  TGI: > 100 µM
MDA-N
  TGI: 91.3 µM
MALME-3M melanoma
  TGI: > 100 µM
A549 NSCLC
  TGI: > 100 µM
MCF7 breast
  TGI: > 100 µM
HOP-92 NSCLC
  TGI: > 100 µM
M14 melanoma
  TGI: > 100 µM
HCT-15 colon
  TGI: > 100 µM
HL-60(TB) leukemia
  TGI: > 100 µM

## CC(C)C(C)/C=C\C(C)C1CCC2C3=CC=C4CC(O)CCC4(C)C3CCC21C (stereo not drawn)
PC-3 prostate
  TGI: > 100 µM
UACC-257 melanoma
  TGI: > 100 µM
U251 CNS
  TGI: > 47.7 µM
NCI-H460 lung
  TGI: > 53.3 µM
SNB-19 CNS
  TGI: > 100 µM
NCI-H226 lung
  TGI: > 65.3 µM
SF-539 CNS
  TGI: > 64 µM
HT29 colon
  TGI: > 55.8 µM
HOP-62 NSCLC
  TGI: > 79.5 µM
SNB-75 CNS
  TGI: > 73.1 µM
TK-10 renal
  TGI: > 100 µM
MDA-MB-231 breast
  TGI: > 61.3 µM
OVCAR-3 ovarian
  TGI: > 80.5 µM
KM12 colon
  TGI: > 100 µM
COLO 205 colon
  TGI: > 61.6 µM
DU-145 prostate
  TGI: > 100 µM
EKVX NSCLC
  TGI: > 64.8 µM
K-562 leukemia
  TGI: > 100 µM
RXF 393 renal
  TGI: > 58.7 µM
IGROV1 ovarian
  TGI: > 54.3 µM
SF-268 CNS
  TGI: > 70.2 µM
CAKI-1 renal
  TGI: > 60.4 µM
UACC-62 melanoma
  TGI: > 66.6 µM
NCI-H23 lung
  TGI: > 100 µM
NCI-H522 lung
  TGI: > 100 µM
SK-MEL-28 melanoma
  TGI: > 60.5 µM
SR leukemia
  TGI: > 61.8 µM
HS 578T breast
  TGI: > 64.2 µM
SF-295 CNS
  TGI: > 100 µM
SK-MEL-2 melanoma
  TGI: > 100 µM
HCT-116 colon
  TGI: > 57.2 µM
ACHN renal
  TGI: > 65.7 µM
OVCAR-8 ovarian
  TGI: > 53.9 µM
786-0 renal
  TGI: > 60.7 µM
MDA-MB-435
  TGI: > 83.5 µM
UO-31 renal
  TGI: > 79 µM
T-47D breast
  TGI: > 100 µM
BT-549 breast
  TGI: > 85.6 µM
SW-620 colon
  TGI: > 72.3 µM
OVCAR-5 ovarian
  TGI: > 100 µM
MOLT-4 leukemia
  TGI: 58.3 µM
OVCAR-4 ovarian
  TGI: > 100 µM
LOX IMVI melanoma
  TGI: > 57.2 µM
SK-MEL-5 melanoma
  TGI: 62.3 µM
A498 renal
  TGI: > 100 µM
CCRF-CEM leukemia
  TGI: > 66.9 µM
NCI/ADR-RES ovarian
  TGI: > 70.7 µM
RPMI-8226 leukemia
  TGI: > 100 µM
SK-OV-3 ovarian
  TGI: > 100 µM
SN12C renal
  TGI: > 60.2 µM
MDA-N
  TGI: > 70.5 µM
MALME-3M melanoma
  TGI: > 50.6 µM
A549 NSCLC
  TGI: > 100 µM
MCF7 breast
  TGI: > 100 µM
HOP-92 NSCLC
  TGI: 70.2 µM
M14 melanoma
  TGI: > 67.7 µM
HCT-15 colon
  TGI: > 71.3 µM
HL-60(TB) leukemia
  TGI: > 77.7 µM
